Patent US5459236A, “Vasoactive vasotocin derivatives” (Ferring AB, priority 1990, dated 1995)

What was measured:
[1] = test system: anaesthetised water-loaded Sprague Dawley rats; assay: Antidiuretic potency test, 4-point test against standard AVP; assay type: in vivo; conditions: maximal increase of urine conductivity after intravenous injection, 4-point test vs AVP
Text: (§1) Vasotocin derivatives according to the invention have been tested for potency of both blood pressure and antidiuretic activity in a so-called 4-point test, i.e. the activity of the test substances has been related to a standard preparation (AVP=argininevasopressin), and the effects of two dose levels for each substance have been analysed. In addition, three pressor-specific VT derivatives according to our previous application SE 8703855-0 have been tested for a comparison, namely 1-Hmp-2-Phe-S-Orn-VT (compound 2 in Table 1), 1-Hmp-2-Phe-S-Dab-VT (compound 3 in Table 1), and 1-Hmp-2-Phe-S-Dab(Ala)-VT (compound 5 in Table 1).
Antidiuretic potency was determined with the aid of anaesthetised water-loaded Sprague Dawley rats (200 g) (Larsson, L. E., Lindeberg, G., Melin, P. and Pliska, V., 1978, J. Mad. Chem. 21, 353). Maximal increase of urine conductivity after intravenous injections was used as effect parameter.
(§2) In these two tests, a comparison was made between the effects of the respective derivative and the effect of a standard preparation, AVP, and potency was determined with the aid of a 4-point test and is indicated in international units per micromole (IU/μmole) (Sturmer, E., in Handbook of Expermimental Pharmacology, 1966, Vol 23, pp 130-189).

[2] = test system: anaesthetised Sprague Dawley rats, previously treated with dibenamine; assay: Blood pressure (pressor) test, 4-point test against standard AVP; assay type: in vivo
Text: as §1
Blood pressure tests were carried out on anaesthetised Sprague Dawley rats (about 250 g), previously treated with dibenamine (Dekanski, J., 1952. Br. J. Pharmacol. 7, 567). Maximal blood pressure increase after intravenous injections of peptide was used as a measure of the effect, expressed as intensity.
In addition to potency determination based-on effect intensity, a measure of the length of the effect has been stated (index of persistence (I.P.), Pliska, V., 1966. Arzheim. Forech. 16, 886). This dimensionless factor is a measure of the effect duration of the respective analog in relation to the standard AVP.
as §2
The specificity in respect of blood pressure is indicated by the ratio of potency blood pressure/potency antidiuresis (BP/AD).

`NC(=O)CC[C@@H]1NC(=O)[C@H](Cc2ccccc2)NC(=O)[C@H](Cc2ccc(O)cc2)NC(=O)[C@@H](N)CSSC[C@@H](C(=O)N2CCC[C@H]2C(=O)N[C@@H](CCCN=C(N)N)C(=O)NCC(N)=O)NC(=O)[C@H](CC(N)=O)NC1=O` [AVP, argininevasopressin] was tested, and the “ANTIDIURESIS AD potency” value [1] was 620 ± 54 IU/μmole, the “BLOOD PRESSURE BP I.P (measure of duration of effect), index of persistence” value ([2]; dimensionless, effect duration in relation to the standard AVP, intravenous) was 1.0 and the “BLOOD PRESSURE BP potency” value ([2]; maximal blood pressure increase after intravenous injection, 4-point test vs AVP, anaesthetised rats) was 614 ± 25 IU/μmole. For the same compound, the “BP/AD (measure of specificity)” value ([2]; ratio of potency blood pressure/potency antidiuresis) was 1.0.
